Laboratory results taken from patent US6414147B1, “2-amino-9-alkylpurines: GABA brain receptor ligands” (Neurogen Corporation, priority 1998, dated 2002).

| Structure (SMILES) | melting point [°C] |
| --- | --- |
| CCCCn1cnc2c(OC)nc(Nc3ccc(OCC)nc3)nc21 [compound 1, 2-[(2-Ethoxypyrid-5-yl)amino]-6-methoxy-9-butyl-9H-purine] | 174 to 176 |
| CCCCn1cnc2c(OC)nc(Nc3ccccc3)nc21 [compound 2, 2-(Phenylamino)-6-methoxy-9-butyl-9H-purine] | 172 to 174 |
| CCCCn1cnc2c(OCC)nc(Nc3ccccc3)nc21 [compound 3, 2-(Phenylamino)-6-ethoxy-9-butyl-9H-purine] | 159 to 160 |
| CCCCn1cnc2c(OCCC)nc(Nc3ccccc3)nc21 [compound 4, 2-(Phenylamino)-6-propoxy-9-butyl-9H-purine] | 115 to 116 |
| CCCCn1cnc2c(OC(C)C)nc(Nc3ccccc3)nc21 [compound 5, 2-(Phenylamino)-6-isopropoxy-9-butyl-9H-purine] | 116 to 118 |
| CCCCn1cnc2c(OCC(C)C)nc(Nc3ccccc3)nc21 [compound 6, 2-(Phenylamino)-6-(2-methylprop-1-oxy)-9-butyl-9H-purine] | 77 to 79 |
| CCCCn1cnc2c(OCC(F)(F)F)nc(Nc3ccccc3)nc21 [compound 7, 2-(Phenylamino)-6-(2,2,2-trifluoroethoxy)-9-butyl-9H-purine] | 102 to 104 |
| CCCCn1cnc2c(SCC)nc(Nc3ccccc3)nc21 [compound 8, 2-(Phenylamino)-6-(ethylthio)-9-butyl-9H-purine] | 173 to 175 |
| CCCCn1cnc2c(OCC3CC3)nc(Nc3ccccc3)nc21 [compound 9, 2-(Phenylamino)-6-(cyclopropylmethoxy)-9-butyl-9H-purine] | 124 to 126 |
| CCCCn1cnc2c(OCCOC)nc(Nc3ccccc3)nc21 [compound 10, 2-(Phenylamino)-6-(2-methoxyethoxy)-9-butyl-9H-purine] | 129 to 131 |
| CCCCn1cnc2c(OCCOCC)nc(Nc3ccccc3)nc21 [compound 11, 2-(Phenylamino)-6-(2-ethoxyethoxy)-9-butyl-9H-purine] | 135 to 137 |
| CCCCn1cnc2c(OCCO)nc(Nc3ccccc3)nc21 [compound 12, 2-(Phenylamino)-6-(2-hydroxyethoxy)-9-butyl-9H-purine] | 108 to 110 |
| CCCCn1cnc2c(OC(C)COC)nc(Nc3ccccc3)nc21 (centres unmarked) [compound 13, 2-(Phenylamino)-6-(1-methyl-2-methoxyethoxy)-9-butyl-9H-purine] | 96 to 98 |
| CCCCn1cnc2c(OCc3ccccc3)nc(Nc3ccccc3)nc21 [compound 14, 2-(Phenylamino)-6-benzyloxy-9-butyl-9H-purine] | 163 to 164 |
| CCCCn1cnc2c(OCc3ccccn3)nc(Nc3ccccc3)nc21 [compound 15, 2-(Phenylamino)-6-(pyrid-2-ylmethoxy)-9-butyl-9H-purine] | 136 to 138 |
| CCCCn1cnc2c(OCc3cccnc3)nc(Nc3ccccc3)nc21 [compound 16, 2-(Phenylamino)-6-(pyrid-3-ylmethoxy)-9-butyl-9H-purine] | 206 to 207 |
| CCCCn1cnc2c(OCc3ccncc3)nc(Nc3ccccc3)nc21 [compound 17, 2-(Phenylamino)-6-(pyrid-4-ylmethoxy)-9-butyl-9H-purine] | 136 to 139 |

| Structure (SMILES) | melting point [°C] |
| --- | --- |
| CCCCn1cnc2c(OCc3cccs3)nc(Nc3ccccc3)nc21 [compound 18, 2-(Phenylamino)-6-(thien-2-ylmethoxy)-9-butyl-9H-purine] | 170 to 172 |
| CCCCn1cnc2c(Oc3ccccc3)nc(Nc3ccccc3)nc21 [compound 19, 2-(Phenylamino)-6-phenoxy-9-butyl-9H-purine] | 124 to 125 |
| COc1nc(Nc2ccccc2)nc2c1ncn2CCCO [compound 21, 2-(Phenylamino)-6-methoxy-9-(3-hydroxypropyl)-9H-purine] | 90 to 94 |
| CCCCCn1cnc2c(OCC)nc(Nc3ccccc3)nc21 [compound 22, 2-(Phenylamino)-6-ethoxy-9-pentyl-9H-purine] | 174 to 176 |
| CCCCCCn1cnc2c(OC)nc(Nc3ccccc3)nc21 [compound 23, 2-(Phenylamino)-6-methoxy-9-hexyl-9H-purine] | 158 to 160 |
| COc1nc(Nc2ccccc2)nc2c1ncn2CCC(C)C [compound 24, 2-(Phenylamino)-6-methoxy-9-(3-methylbutyl)-9H-purine] | 167 to 169 |
| COc1nc(Nc2ccccc2)nc2c1ncn2Cc1ccccc1 [compound 25, 2-(Phenylamino)-6-methoxy-9-benzyl-9H-purine] | 165 to 167 |
| CCCCn1cnc2c(OC)nc(Nc3ccc(F)cc3)nc21 [compound 27, 2-[(4-Fluorophenyl)amino]-6-methoxy-9-butyl-9H-purine] | 185 to 187 |
| CCCCn1cnc2c(OCCOC)nc(Nc3ccc(F)cc3)nc21 [compound 28, 2-[(4-Fluorophenyl)amino]-6-(2-methoxyethoxy)-9-butyl-9h-purine] | 165 to 166 |
| CCCCn1cnc2c(OCCOC(C)C)nc(Nc3ccc(F)cc3)nc21 [compound 29, 2-[(4-Fluorophenyl)amino]-6-(2-isopropoxyethoxy)-9-butyl-9H-purine] | 116 to 118 |
| CCCCn1cnc2c(OCCOCCC)nc(Nc3ccc(F)cc3)nc21 [compound 30, 2-[(4-Fluorophenyl)amino]-6-(2-prop-1-oxyethoxy)-9-butyl-9H-purine] | 149 to 150 |
| CCCCn1cnc2c(OCCCOCC)nc(Nc3ccc(F)cc3)nc21 [compound 31, 2-[(4-Fluorophenyl)amino]-6-(3-ethoxyprop-1-oxy)-9-butyl-9H-purine] | 95 to 97 |
| CCCCn1cnc2c(OCCC(C)C)nc(Nc3ccc(F)cc3)nc21 [compound 32, 2-[(4-Fluorophenyl)amino]-6-(3-methylbut-1-oxy)-9-butyl-9H-purine] | 88 to 90 |
| CCCCn1cnc2c(Oc3ccccc3)nc(Nc3ccc(F)cc3)nc21 [compound 33, 2-[(4-Fluorophenyl)amino]-6-phenoxy-9-butyl-9H-purine] | 171 to 172 |
| CCCCn1cnc2c(Oc3ccccc3F)nc(Nc3ccc(F)cc3)nc21 [compound 34, 2-[(4-Fluorophenyl)amino]-6-(2-fluorophenoxy)-9-butyl-9H-purine] | 155 to 157 |
| CCCCn1cnc2c(Oc3cccc(OC)c3)nc(Nc3ccc(F)cc3)nc21 [compound 35, 2-[(4-Fluorophenyl)amino]-6-(3-methoxyphenoxy)-9-butyl-9H-purine] | 185 to 187 |
| CCCCn1cnc2c(Oc3ccc(OCC)cc3)nc(Nc3ccc(F)cc3)nc21 [compound 36, 2-[(4-Fluorophenyl)amino]-6-(4-ethoxyphenoxy)-9-butyl-9H-purine] | 138 to 140 |

Results, then the molecule that gave them:

| melting point [°C] | Structure (SMILES) |
| --- | --- |
| > 300 | CCCCn1cnc2c(Oc3cccnc3)nc(Nc3ccc(F)cc3)nc21.CS(=O)(=O)O [compound 37, 2-[(4-Fluorophenyl)amino]-6-(pyrid-3-yloxy)-9-butyl-9H-purine methanesulfonate] |
| 158 to 160 | CCCCn1cnc2c(OC)nc(Nc3ccc(OC)cc3)nc21 [compound 39, 2-[(4-Methoxyphenyl)amino]-6-methoxy-9-butyl-9H-purine] |
| 171 to 172 | CCCCn1cnc2c(OC)nc(Nc3ccc(OCC)cc3)nc21 [compound 40, 2-[(4-Ethoxyphenyl)amino]-6-methoxy-9-butyl-9H-purine] |
| 164 | CCCCn1cnc2c(OCC)nc(Nc3ccc(Cl)cc3)nc21 [compound 43, 2-[(4-Chlorophenyl)amino]-6-ethoxy-9-butyl-9H-purine] |
| 101 to 103 | CCCCn1cnc2c(OC)nc(Nc3ccccc3OC)nc21 [compound 44, 2-[(2-Methoxyphenyl)amino]-6-methoxy-9-butyl-9H-purine] |
| 77 to 79 | CCCCn1cnc2c(OC)nc(Nc3ccccc3OCC)nc21 [compound 45, 2-[(2-Ethoxyphenyl)amino]-6-methoxy-9-butyl-9H-purine] |
| 91 to 93 | CCCCn1cnc2c(OC)nc(Nc3ccccc3C)nc21 [compound 46, 2-[(2-Methylphenyl)amino]-6-methoxy-9-butyl-9H-purine] |
| 104 to 106 | CCCCn1cnc2c(OC)nc(Nc3ccc(OC)cc3OC)nc21 [compound 47, 2-[(2,4-Dimethoxyphenyl)amino]-6-methoxy-9-butyl-9H-purine] |
| 86 to 88 | CCCCn1cnc2c(OCC)nc(Nc3ccc(OC)cc3OC)nc21 [compound 48, 2-[(2,4-Dimethoxyphenyl)amino]-6-ethoxy-9-butyl-9H-purine] |
| 88 to 89 | CCCCn1cnc2c(OCCOC)nc(Nc3ccc(OC)cc3OC)nc21 [compound 49, 2-[(2,4-Dimethoxyphenyl)amino]-6-(2-methoxyethoxy)-9-butyl-9H-purine] |
| 129 to 131 | CCCCn1cnc2c(Oc3ccccc3)nc(Nc3ccc(OC)cc3OC)nc21 [compound 50, 2-[(2,4-Dimethoxyphenyl)amino]-6-phenoxy-9-butyl-9H-purine] |
| 97 to 99 | CCCCn1cnc2c(OCC)nc(Nc3ccc(C)cc3C)nc21 [compound 51, 2-[(2,4-Dimethylphenyl)amino]-6-ethoxy-9-butyl-9H-purine] |
| 160 to 162 | CCCCn1cnc2c(OC)nc(Nc3ccc(OC)c(OC)c3)nc21 [compound 52, 2-[(3,4-Dimethoxyphenyl)amino]-6-methoxy-9-butyl-9H-purine] |
| 178 to 179 | CCCCn1cnc2c(OC)nc(Nc3ccc(OC)c(F)c3)nc21 [compound 53, 2-[(3-Fluoro-4-methoxyphenyl)amino]-6-methoxy-9-butyl-9H-purine] |
| 138 | CCCCn1cnc2c(OCC)nc(Nc3ccc(OC(C)C)cc3F)nc21.CS(=O)(=O)O [compound 54, 2-[(2-Fluoro-4-isopropoxyphenyl)amino]-6-ethoxy-9-butyl-9H-purine methane sulfonate] |
| 171 to 172 | CCCCn1cnc2c(OC)nc(Nc3ccc(OC)nc3)nc21 [compound 55, 2-[(2-Methoxypyrid-5-yl)amino]-6-methoxy-9-butyl-9H-purine] |
